Data taken from ChEMBL document CHEMBL1150976, “The selectivity of protein kinase inhibitors: a further update” (Biochem J, 2007).

Assays:
[1] = target: Calcium/calmodulin-dependent protein kinase kinase 1 (Homo sapiens) (UniProt Q8N5S9); assay: Percentage CaMKKalpha activity remaining in the presence of 0.1uM inhibitor
[2] = target: SRSF protein kinase 1 (Homo sapiens) (UniProt Q96SB4); assay: Percentage SRPK1 activity remaining in the presence of 0.1uM inhibitor
[3] = target: Mitogen-activated protein kinase 8 (Homo sapiens, UniProt P45983); assay: Percentage JNK1 activity remaining in the presence of 0.1uM inhibitor
[4] = target: Mitogen-activated protein kinase 11 (Homo sapiens) (UniProt Q15759); assay: Percentage p38beta activity remaining in the presence of 0.1uM inhibitor
[5] = target: T1, Eukaryotic elongation factor 2 kinase (Homo sapiens) (UniProt O00418); assay: Percentage EF2K activity remaining in the presence of 0.1uM inhibitor
T1 sequence (whole entry): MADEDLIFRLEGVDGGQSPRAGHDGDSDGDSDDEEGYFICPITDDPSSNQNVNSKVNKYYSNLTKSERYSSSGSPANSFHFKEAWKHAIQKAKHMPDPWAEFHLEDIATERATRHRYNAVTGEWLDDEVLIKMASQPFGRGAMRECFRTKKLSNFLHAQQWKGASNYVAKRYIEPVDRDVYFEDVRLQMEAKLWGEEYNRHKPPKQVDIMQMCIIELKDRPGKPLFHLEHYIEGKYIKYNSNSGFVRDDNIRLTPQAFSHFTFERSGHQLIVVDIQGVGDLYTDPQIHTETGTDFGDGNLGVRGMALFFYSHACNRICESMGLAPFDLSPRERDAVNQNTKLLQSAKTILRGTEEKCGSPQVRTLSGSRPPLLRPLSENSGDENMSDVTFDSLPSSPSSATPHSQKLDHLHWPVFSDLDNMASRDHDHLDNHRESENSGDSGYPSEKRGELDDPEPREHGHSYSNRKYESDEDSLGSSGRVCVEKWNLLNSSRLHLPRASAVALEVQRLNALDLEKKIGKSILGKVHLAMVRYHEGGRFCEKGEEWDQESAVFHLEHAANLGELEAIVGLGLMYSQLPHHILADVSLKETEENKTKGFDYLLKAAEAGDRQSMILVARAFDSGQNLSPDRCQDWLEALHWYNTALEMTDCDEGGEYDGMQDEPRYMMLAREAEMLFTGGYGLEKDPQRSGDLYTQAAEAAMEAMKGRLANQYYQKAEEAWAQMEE

[6] = target: T2, Aurora kinase C (Homo sapiens) (UniProt Q9UQB9); assay: Percentage Aurora C activity remaining in the presence of 0.1uM inhibitor
T2 sequence (whole entry): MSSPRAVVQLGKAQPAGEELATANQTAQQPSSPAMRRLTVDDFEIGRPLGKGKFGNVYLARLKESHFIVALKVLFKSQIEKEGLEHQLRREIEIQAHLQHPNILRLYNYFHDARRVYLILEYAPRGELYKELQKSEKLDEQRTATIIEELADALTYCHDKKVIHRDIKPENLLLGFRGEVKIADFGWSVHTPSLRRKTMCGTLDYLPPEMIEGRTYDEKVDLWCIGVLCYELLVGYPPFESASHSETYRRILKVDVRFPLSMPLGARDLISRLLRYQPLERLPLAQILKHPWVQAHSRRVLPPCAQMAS

[7] = species on record: Homo sapiens; assay: Percentage PHK activity remaining in the presence of 0.1uM inhibitor
[8] = target: Serine/threonine-protein kinase PLK1 (Homo sapiens, UniProt P53350); assay: Percentage PLK1 activity remaining in the presence of 0.1uM inhibitor
[9] = target: T3, Serine/threonine-protein kinase Sgk1 (Homo sapiens) (UniProt O00141); assay: Percentage SGK1 activity remaining in the presence of 0.1uM inhibitor
T3 sequence (whole entry): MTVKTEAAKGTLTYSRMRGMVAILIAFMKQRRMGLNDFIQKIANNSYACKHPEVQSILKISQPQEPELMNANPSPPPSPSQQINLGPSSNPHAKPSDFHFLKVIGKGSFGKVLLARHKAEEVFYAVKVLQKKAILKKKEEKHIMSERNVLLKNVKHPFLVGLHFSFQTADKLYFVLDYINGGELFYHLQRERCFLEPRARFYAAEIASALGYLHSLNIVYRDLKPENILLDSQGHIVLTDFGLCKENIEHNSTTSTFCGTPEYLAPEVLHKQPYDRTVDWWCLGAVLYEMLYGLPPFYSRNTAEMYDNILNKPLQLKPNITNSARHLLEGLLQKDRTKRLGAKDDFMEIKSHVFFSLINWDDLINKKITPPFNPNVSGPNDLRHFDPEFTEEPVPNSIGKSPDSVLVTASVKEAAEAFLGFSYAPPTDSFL

[10] = target: RAC-alpha serine/threonine-protein kinase (Homo sapiens) (UniProt P31749); assay: Percentage PKBalpha activity remaining in the presence of 0.1uM inhibitor
[11] = target: Mitogen-activated protein kinase 1 (Homo sapiens) (UniProt P28482); assay: Percentage ERK2 activity remaining in the presence of 0.1uM inhibitor
[12] = target: Serine/threonine-protein kinase Chk2 (Homo sapiens) (UniProt O96017); assay: Percentage CHK2 activity remaining in the presence of 0.1uM inhibitor
[13] = target: T4, Inhibitor of nuclear factor kappa-B kinase subunit beta (Homo sapiens) (UniProt O14920); assay: Percentage IKK-beta activity remaining in the presence of 0.1uM inhibitor
T4 sequence (whole entry): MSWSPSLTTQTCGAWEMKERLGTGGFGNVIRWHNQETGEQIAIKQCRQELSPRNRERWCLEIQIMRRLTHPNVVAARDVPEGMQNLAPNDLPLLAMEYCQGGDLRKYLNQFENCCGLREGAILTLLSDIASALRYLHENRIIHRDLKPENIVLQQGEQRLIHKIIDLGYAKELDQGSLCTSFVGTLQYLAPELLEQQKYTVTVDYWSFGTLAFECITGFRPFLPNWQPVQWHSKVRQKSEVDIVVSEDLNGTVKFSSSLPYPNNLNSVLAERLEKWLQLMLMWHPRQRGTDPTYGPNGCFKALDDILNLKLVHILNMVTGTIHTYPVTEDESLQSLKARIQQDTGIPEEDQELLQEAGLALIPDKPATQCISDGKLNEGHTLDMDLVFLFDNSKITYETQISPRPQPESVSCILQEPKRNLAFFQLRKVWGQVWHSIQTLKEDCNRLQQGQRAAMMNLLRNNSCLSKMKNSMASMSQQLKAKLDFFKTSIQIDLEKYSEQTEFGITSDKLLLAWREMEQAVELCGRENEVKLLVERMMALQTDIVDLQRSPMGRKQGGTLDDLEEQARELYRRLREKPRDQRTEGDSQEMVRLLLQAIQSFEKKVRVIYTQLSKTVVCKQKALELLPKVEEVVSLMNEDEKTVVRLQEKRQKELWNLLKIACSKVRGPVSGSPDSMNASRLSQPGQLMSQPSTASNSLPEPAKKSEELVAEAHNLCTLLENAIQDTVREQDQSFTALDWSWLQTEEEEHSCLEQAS

Mitogen-activated protein kinase 11 (Homo sapiens), sequence (Q15759 whole entry): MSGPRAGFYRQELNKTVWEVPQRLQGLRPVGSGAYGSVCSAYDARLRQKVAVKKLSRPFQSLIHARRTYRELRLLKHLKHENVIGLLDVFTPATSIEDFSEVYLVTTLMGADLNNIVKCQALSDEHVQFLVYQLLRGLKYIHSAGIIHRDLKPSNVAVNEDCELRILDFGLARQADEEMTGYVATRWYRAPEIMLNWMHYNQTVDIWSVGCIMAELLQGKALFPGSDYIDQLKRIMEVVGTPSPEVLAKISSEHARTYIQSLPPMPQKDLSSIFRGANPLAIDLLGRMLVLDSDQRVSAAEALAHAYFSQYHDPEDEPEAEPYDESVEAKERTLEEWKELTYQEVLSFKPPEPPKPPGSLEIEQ
Serine/threonine-protein kinase PLK1, sequence (P53350 whole entry): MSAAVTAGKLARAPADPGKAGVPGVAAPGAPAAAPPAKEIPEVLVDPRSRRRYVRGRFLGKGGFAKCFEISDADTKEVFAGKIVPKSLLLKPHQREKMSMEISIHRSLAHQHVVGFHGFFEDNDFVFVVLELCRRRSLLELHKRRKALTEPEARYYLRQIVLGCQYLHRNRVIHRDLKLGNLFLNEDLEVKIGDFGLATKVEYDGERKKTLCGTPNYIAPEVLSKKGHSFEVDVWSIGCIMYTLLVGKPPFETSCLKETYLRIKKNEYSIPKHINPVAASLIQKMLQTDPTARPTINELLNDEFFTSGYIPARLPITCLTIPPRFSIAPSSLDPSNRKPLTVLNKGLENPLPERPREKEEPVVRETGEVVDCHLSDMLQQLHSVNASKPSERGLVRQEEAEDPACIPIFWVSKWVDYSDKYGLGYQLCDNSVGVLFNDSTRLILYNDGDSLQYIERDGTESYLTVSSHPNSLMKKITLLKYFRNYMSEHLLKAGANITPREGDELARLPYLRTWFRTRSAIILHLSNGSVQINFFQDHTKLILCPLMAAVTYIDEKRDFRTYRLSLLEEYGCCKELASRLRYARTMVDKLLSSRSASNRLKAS
RAC-alpha serine/threonine-protein kinase (Homo sapiens), sequence (P31749 whole entry): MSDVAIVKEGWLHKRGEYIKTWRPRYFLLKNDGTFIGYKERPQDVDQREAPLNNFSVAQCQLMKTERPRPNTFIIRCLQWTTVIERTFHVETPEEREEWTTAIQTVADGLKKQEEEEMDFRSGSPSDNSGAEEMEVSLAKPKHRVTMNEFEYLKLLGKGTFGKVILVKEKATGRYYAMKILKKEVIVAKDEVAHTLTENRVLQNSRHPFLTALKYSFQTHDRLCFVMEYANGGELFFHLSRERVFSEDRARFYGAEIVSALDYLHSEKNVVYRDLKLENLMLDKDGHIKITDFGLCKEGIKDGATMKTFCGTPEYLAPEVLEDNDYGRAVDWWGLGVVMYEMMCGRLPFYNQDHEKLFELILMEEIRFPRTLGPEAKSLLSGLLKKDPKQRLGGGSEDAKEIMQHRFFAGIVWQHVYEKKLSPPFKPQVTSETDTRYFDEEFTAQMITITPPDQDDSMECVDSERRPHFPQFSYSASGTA
Calcium/calmodulin-dependent protein kinase kinase 1 (Homo sapiens), sequence (Q8N5S9 whole entry, looked up): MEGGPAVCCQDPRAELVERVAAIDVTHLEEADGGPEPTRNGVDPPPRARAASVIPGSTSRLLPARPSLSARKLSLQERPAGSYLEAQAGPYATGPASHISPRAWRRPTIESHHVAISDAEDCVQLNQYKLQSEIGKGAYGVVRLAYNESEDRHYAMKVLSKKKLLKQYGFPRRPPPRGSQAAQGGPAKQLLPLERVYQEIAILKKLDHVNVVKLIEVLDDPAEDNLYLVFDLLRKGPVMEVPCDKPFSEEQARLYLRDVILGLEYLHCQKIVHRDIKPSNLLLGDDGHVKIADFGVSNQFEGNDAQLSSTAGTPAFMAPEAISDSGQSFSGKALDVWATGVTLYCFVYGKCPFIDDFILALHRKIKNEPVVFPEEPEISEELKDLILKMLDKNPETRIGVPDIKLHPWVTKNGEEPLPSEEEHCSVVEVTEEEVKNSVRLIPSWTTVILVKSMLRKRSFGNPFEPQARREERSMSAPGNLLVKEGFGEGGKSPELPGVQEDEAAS
Serine/threonine-protein kinase Chk2 (Homo sapiens), sequence (O96017 whole entry): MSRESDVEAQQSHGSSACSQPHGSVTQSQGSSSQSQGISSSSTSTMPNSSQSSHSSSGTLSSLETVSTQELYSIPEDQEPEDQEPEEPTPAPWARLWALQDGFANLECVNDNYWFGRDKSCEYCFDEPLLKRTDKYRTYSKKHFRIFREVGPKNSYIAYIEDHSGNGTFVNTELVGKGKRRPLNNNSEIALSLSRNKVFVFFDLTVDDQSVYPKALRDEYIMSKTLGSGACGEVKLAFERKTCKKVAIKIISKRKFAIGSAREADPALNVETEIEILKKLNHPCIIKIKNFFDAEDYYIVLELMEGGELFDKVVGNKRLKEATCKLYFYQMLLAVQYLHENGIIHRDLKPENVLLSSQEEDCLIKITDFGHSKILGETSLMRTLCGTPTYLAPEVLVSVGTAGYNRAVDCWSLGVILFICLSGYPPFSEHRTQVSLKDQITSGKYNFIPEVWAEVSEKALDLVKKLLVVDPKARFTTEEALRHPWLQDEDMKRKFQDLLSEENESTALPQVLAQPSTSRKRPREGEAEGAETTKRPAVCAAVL
Mitogen-activated protein kinase 1 (Homo sapiens), sequence (P28482 whole entry): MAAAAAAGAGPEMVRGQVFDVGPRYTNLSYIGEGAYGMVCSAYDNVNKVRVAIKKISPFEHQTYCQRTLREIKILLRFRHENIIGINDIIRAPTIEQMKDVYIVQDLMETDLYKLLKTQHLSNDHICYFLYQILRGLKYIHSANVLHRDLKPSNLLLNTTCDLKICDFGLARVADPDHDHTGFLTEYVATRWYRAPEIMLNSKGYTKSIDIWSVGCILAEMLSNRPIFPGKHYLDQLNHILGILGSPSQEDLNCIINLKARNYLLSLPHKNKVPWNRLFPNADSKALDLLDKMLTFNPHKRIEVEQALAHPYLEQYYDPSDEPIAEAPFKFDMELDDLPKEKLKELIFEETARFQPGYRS
SRSF protein kinase 1 (Homo sapiens), sequence (Q96SB4 whole entry): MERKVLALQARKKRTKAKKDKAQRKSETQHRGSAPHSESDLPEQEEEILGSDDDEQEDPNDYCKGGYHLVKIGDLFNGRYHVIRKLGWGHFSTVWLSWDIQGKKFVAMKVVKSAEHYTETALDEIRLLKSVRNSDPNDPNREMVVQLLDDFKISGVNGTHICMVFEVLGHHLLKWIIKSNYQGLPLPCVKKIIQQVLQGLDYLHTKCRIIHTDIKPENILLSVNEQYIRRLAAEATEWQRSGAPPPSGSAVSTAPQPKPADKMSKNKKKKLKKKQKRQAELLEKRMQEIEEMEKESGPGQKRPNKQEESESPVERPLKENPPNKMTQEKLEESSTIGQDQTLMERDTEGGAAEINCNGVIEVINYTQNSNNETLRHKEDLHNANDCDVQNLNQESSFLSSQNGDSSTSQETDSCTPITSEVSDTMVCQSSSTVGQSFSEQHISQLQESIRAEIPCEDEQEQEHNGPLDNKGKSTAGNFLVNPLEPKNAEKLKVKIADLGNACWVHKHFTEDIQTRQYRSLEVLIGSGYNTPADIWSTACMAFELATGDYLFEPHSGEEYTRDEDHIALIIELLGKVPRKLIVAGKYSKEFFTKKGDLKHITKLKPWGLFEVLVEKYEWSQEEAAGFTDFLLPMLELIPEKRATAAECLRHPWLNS
Mitogen-activated protein kinase 8, sequence (P45983 whole entry): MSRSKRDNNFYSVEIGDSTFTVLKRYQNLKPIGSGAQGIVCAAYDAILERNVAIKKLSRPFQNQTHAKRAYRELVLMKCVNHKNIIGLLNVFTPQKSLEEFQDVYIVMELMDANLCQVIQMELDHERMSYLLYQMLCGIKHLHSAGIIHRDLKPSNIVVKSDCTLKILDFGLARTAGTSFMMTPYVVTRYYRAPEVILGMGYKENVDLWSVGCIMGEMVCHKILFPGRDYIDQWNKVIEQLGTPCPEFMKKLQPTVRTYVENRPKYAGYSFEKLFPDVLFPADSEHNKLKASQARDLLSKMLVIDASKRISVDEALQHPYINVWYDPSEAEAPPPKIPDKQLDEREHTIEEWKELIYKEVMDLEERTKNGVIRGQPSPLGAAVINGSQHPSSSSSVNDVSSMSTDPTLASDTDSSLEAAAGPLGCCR

SMILES | Activity [1] [%] | Activity [2] [%] | Activity [3] [%] | Activity [4] [%] | Activity [5] [%] | Activity [6] [%] | Activity [7] [%] | Activity [9] [%] | Activity [10] [%] | Activity [11] [%] | Activity [12] [%] | Activity [13] [%] | Activity [8] [%] | Activity ([9]; filed as antagonist) [%] | Activity ([7]; filed as antagonist) [%] | other results
CC(C)CCN1c2nc(Nc3cc(F)c(O)c(F)c3)ncc2N(C)C(=O)C1C (stereo not given) | 92 | 94 | 88 | 100 | 88 | 76 | 114 | 112 | 98 | 85 | 96 | 106 | – | – | – | Activity ([8]; filed as antagonist): 5%
O=C(NCCCNc1nc(Nc2cccc(NC(=O)N3CCCC3)c2)ncc1I)c1cccs1 | 69 | 86 | 85 | 71 | 93 | – | 62 | – | 90 | 71 | – | 93 | 92 | 48 | – | Activity ([6]; filed as antagonist): 9%; Activity ([12]; filed as antagonist): 46%
Cc1n[nH]c2ccc(-c3cncc(OC[C@@H](N)Cc4c[nH]c5ccccc45)c3)cc12 | 117 | 91 | 90 | 105 | 94 | 92 | 54 | 53 | – | 64 | 95 | 89 | 80 | – | – | Activity ([10]; filed as antagonist): 3%
CC(C)[C@H](CO)Nc1nc(Nc2cccc(Cl)c2)c2ncn(C(C)C)c2n1 [PURVALANOLA] | 76 | 79 | 100 | 90 | 95 | 85 | 85 | 82 | 95 | 79 | 94 | 89 | 81 | – | – | –
Cn1cc(C2=C(c3cn(CCCSC(=N)N)c4ccccc34)C(=O)NC2=O)c2ccccc21 | 104 | 82 | 93 | 99 | 101 | 77 | – | – | 52 | 92 | 99 | 91 | 82 | 39 | 46 | –
CN(C)C[C@@H]1CCn2cc(c3ccccc32)C2=C(C(=O)NC2=O)c2cn(c3ccccc23)CCO1 | 97 | – | 87 | 109 | 90 | 92 | – | 66 | 90 | 94 | 92 | 86 | 85 | – | 49 | –
Cn1c2ccccc2c2c3c(c4c5ccccc5n(CCC#N)c4c21)CNC3=O | – | 92 | 69 | 100 | 100 | – | – | – | 96 | – | – | 76 | 80 | 44 | 1 | Activity ([1]; filed as antagonist): 27%; Activity ([6]; filed as antagonist): 44%; Activity ([11]; filed as antagonist): 41%; Activity ([12]; filed as antagonist): 43%
